These results are taken from ChEMBL document CHEMBL5365485 (J Med Chem, 2023).

Molecules are shown by their SMILES. Active and inactive are the calls of the source. The rule behind the calls is not given here.

For orientation: IC50 means the concentration that inhibits the measured activity by half. High values mean weaker potency, low ones greater potency. By Kd is commonly meant the equilibrium constant for the complex coming apart.

Test [1] concerns the target Hypoxia-inducible factor 1-alpha (Homo sapiens) (UniProt Q16665). Briefly: Stabilization of HIF-1alpha in human HeLa cells at 50 uM incubated for 2 hrs by Western blot analysis relative to VH298. It counts as cell-based. A general note: Immunoblotting shows a protein as a band on a membrane.
Test [2] has the same target. Briefly: Stabilization of HIF-1alpha in HEK293 cells at 50 uM incubated for 2 hrs by Western blot analysis relative to VH298. It counts as cell-based.
Test [3] has the same target. Briefly: Stabilization of hydroxylated HIF-1alpha in human HeLa cells at 50 uM incubated for 2 hrs by Western blot analysis relative to VH298. It counts as cell-based.
For test [4] the target is unchanged. Briefly: Stabilization of hydroxylated HIF-1alpha in HEK293 cells at 50 uM incubated for 2 hrs by Western blot analysis relative to VH298. Type of test: cell-based.
The target of test [5] is Von Hippel-Lindau disease tumor suppressor/Elongin B/Elongin C (Homo sapiens) (UniProt P40337+Q15370+Q15369). Put plainly: Binding affinity to biotinylated VHL/Elongin B/Elongin C (unknown origin) immobilized in SA sensor chip assessed as second-order on-rate constant for association (Kon) by SPR analysis. Type of test: protein-complex assay. A general note: SPR reads the build-up and loss of mass on a sensor chip optically.

Test [6] deals with T1, von Hippel-Lindau disease tumor suppressor (Homo sapiens, UniProt P40337). Put plainly: Inhibition of NanoLuc-fused VHL (unknown origin) transfected in live HEK293 cells using NanoGlo substrate incubated for 30 mins by tracer based NanoBRET assay. It counts as cell-based. On the technique in general: Bioluminescence resonance energy transfer reports proximity on the nanometre scale.

Test [7] deals with T2, Von Hippel-Lindau disease tumor suppressor/Elongin B/Elongin C (Homo sapiens, UniProt P40337). Briefly: Inhibition of VHL/Elongin B/Elongin C (unknown origin) using FAM-DEALA-Hyp-YIPD as substrate by fluorescence polarization assay. Type of test: protein-complex assay.
Test [8] has as its target Hypoxia-inducible factor 1-alpha (Homo sapiens) (UniProt Q16665). Put plainly: Induction of HIF-1alpha transcription activity in human HeLa cells incubated for 32 hrs by HRE-luciferase based assay. It counts as cell-based.
Test [9] has the same target. Briefly: Induction of HIF-1alpha transcription activity in human U2OS cells incubated for 32 hrs by HRE-luciferase based assay. It counts as cell-based.
For test [10] the target is unchanged. Briefly: Induction of HIF-1alpha transcription activity in human HeLa cells assessed as increase in CA9 mRNA level at 50 uM incubated for 16 hrs by RT-qPCR analysis. Type of test: cell-based.
The test system of test [11] is HeLa. Briefly: Upregulation of HIF-1alpha level in human HeLa cells at 10 to 100 uM incubated for 1 hr by immunoblot analysis. Type of test: functional, cell-based. The settings on record: dose 10-100 µM.
Test [12] relates to HeLa. Put plainly: Upregulation of hydroxylated HIF-1alpha level in human HeLa cells at 10 to 100 uM incubated for 1 hr by immunoblot analysis. It counts as functional, cell-based. The settings on record: dose 10-100 µM.
Test [13] has as its system HeLa. Put plainly: Upregulation of HIF-1alpha level in human HeLa cells at 50 uM incubated for 1 hr by immunoblot analysis. Type of test: functional, cell-based.
Test [14] concerns HeLa. Put plainly: Upregulation of hydroxylated HIF-1alpha level in human HeLa cells at 50 uM incubated for 1 hr by immunoblot analysis. It counts as functional, cell-based.
Test [15] deals with Hypoxia-inducible factor 1-alpha (Homo sapiens) (UniProt Q16665). Put plainly: Induction of HIF-1alpha transcription activity in human HeLa cells at 150 uM incubated for 32 hrs by HRE-luciferase based assay. Type of test: cell-based.
For test [16] the target is unchanged. Put plainly: Induction of HIF-1alpha transcription activity in human U2OS cells at 150 uM incubated for 32 hrs by HRE-luciferase based assay. Type of test: cell-based.
Test [17] addresses T2, Von Hippel-Lindau disease tumor suppressor/Elongin B/Elongin C. Briefly: Binding affinity to biotinylated VHL/Elongin B/Elongin C (unknown origin) immobilized in SA sensor chip assessed as dissociation constant by SPR analysis. Type of test: protein-complex assay.
Test [18] shares this target. Put plainly: Binding affinity to N-terminal His6-tagged VHL (54 to 213 residues)/Elongin B (1 to 104 residues)/Elongin C (17 to 112 residues) (unknown origin) expressed in Escherichia coli BL21(DE3) cells assessed as dissociation constant by ITC analysis.
The target of test [19] is T1, von Hippel-Lindau disease tumor suppressor. Briefly: Inhibition of NanoLuc-fused VHL (unknown origin) transfected in permeabilized HEK293 cells using NanoGlo substrate incubated for 30 mins by tracer based NanoBRET assay. Type of test: cell-based.
Test [20] deals with T2, Von Hippel-Lindau disease tumor suppressor/Elongin B/Elongin C. Put plainly: Binding affinity to VHL (54 to 213 residues)/N-terminal Avi-tagged biotinylated-Elongin B (1 to 104 residues)/Elongin C (17 to 112 residues) (unknown origin) expressed in Escherichia coli cells immobilized in SA sensor chip assessed as dissociation constant by SPR analysis.

T1 sequence (P40337 whole entry, the tested form may be a part): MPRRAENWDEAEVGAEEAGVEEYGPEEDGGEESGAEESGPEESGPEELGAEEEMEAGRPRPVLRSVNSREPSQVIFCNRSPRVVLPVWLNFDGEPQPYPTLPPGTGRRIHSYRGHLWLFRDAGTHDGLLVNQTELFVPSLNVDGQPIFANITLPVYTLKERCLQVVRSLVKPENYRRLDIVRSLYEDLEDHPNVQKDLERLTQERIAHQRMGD
T2 sequence (P40337 whole entry, looked up): as the sequence (P40337 whole entry, the tested form may be a part) above
Chain of Von Hippel-Lindau disease tumor suppressor/Elongin B/Elongin C (Homo sapiens) (P40337 whole entry, looked up): as the sequence (P40337 whole entry, the tested form may be a part) above
Chain of Von Hippel-Lindau disease tumor suppressor/Elongin B/Elongin C (Homo sapiens) (Q15369 whole entry, looked up): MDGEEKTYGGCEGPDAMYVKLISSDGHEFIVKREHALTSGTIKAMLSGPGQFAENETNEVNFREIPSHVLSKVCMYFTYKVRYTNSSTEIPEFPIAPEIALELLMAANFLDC
Chain of Von Hippel-Lindau disease tumor suppressor/Elongin B/Elongin C (Homo sapiens) (Q15370 whole entry, looked up): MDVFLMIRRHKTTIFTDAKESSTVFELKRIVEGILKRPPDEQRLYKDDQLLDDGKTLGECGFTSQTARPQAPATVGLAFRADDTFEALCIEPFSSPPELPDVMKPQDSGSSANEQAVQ
Chain of Hypoxia-inducible factor 1-alpha (Homo sapiens) (Q16665 whole entry, looked up): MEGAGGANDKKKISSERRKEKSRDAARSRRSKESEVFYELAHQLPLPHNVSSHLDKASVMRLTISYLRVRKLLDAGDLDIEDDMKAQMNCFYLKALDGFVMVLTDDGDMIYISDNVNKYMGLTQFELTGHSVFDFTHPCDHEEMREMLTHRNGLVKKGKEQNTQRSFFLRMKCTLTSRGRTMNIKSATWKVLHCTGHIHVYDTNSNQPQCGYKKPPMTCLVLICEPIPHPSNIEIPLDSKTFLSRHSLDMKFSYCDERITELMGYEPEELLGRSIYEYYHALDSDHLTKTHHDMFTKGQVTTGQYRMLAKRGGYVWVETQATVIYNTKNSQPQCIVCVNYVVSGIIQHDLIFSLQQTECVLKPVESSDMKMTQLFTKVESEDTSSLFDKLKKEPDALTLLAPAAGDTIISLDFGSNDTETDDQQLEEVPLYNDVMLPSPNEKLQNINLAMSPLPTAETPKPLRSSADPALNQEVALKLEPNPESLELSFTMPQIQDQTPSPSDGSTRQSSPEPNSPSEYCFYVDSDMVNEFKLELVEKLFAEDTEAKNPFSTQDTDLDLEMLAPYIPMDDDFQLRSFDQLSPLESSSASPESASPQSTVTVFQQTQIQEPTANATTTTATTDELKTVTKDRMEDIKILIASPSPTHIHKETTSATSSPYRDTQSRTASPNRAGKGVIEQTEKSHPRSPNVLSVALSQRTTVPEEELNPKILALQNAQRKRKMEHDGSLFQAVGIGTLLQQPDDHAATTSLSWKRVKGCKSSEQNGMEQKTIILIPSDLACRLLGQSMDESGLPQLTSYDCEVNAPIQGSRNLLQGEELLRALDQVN

In the case of `Cc1cc(-c2scnc2C)c(F)cc1[C@H](C)NC(=O)[C@@H]1C[C@@H](O)CN1C(=O)[C@@H](NC(=O)C1(F)CC1)C(C)(C)C`, the Activity in test [1] is 155%; in [2], 152%; in test [3], 217%; in test [4] it was 137%. Besides, the K in [5] was 1 10^6/M/s. The molecule also came in with an IC50 in [6] of 366 nM.
`Cc1ncsc1-c1ccc(CNC(=O)[C@@H]2C[C@@H](O)CN2C(=O)Cc2cccc(N)c2C)cc1` gave an IC50 in [7] of 900 nM.
Take `Cc1ncsc1-c1ccc(CNC(=O)[C@@H]2C[C@@H](O)CN2C(=O)[C@@H](NC(=O)C2(C#N)CC2)C(C)(C)C)cc1`: the Activity entry in [8] and in [9] was “Dose-Dependent Effect” in each case. The outcome in [10] was Active.
Consider `Cc1ncsc1-c1ccc(CNC(=O)[C@@H]2C[C@@H](O)CN2C(=O)[C@@H](NC(=O)C2(C#N)CC2)C(C)(C)C)cc1F`, for which the Activity in [1] came to 83%; in test [2], 18%; in test [3], 74%; in test [4] it was 20%.
As to `COc1cc(-c2scnc2C)c(F)cc1CNC(=O)[C@@H]1C[C@@H](O)CN1C(=O)[C@@H](NC(=O)C1(F)CC1)C(C)(C)C`, the Activity in test [1] was found to be 95%; in [2] it was 73%; in test [3], 98%; in test [4] it was 68%. For the same molecule, the K in [5] was 1 10^6/M/s.
In the case of `Cc1cc(-c2scnc2C)ccc1CNC(=O)[C@@H]1C[C@@H](O)CN1C(=O)[C@@H](NC(=O)C1(C#N)CC1)C(C)(C)C`, the Activity in test [1] worked out at 89%; in test [2], 78%; in [3], 88%; in test [4], 66%.
Regarding `Cc1ncsc1-c1ccc([C@H](C)NC(=O)[C@@H]2C[C@@H](O)CN2C(=O)[C@@H](NC(=O)C2(F)CC2)C(C)(C)C)cc1F`, the Activity in [1] is 120%; in test [2] it was 92%; in test [3], 177%; in test [4] it was 102%. Further, in test [5], the K is 1 10^6/M/s.
For `Cc1cc(-c2scnc2C)ccc1CNC(=O)[C@@H]1C[C@@H](O)CN1C(=O)[C@@H](NC(=O)C1(F)CC1)C(C)(C)C`, the Activity was found to be 116% in [1], 78% in test [2], 120% in test [3] and 69% in [4]. For the same molecule, in test [5], the K was 1 10^6/M/s.
Regarding `COc1cc(-c2scnc2C)c(F)cc1[C@H](C)NC(=O)[C@@H]1C[C@@H](O)CN1C(=O)[C@@H](NC(=O)C1(F)CC1)C(C)(C)C`, the Activity in test [1] is 128%; in test [2], 145%; in [3], 179%; in [4] it was 137%; in [8], “Dose-Dependent Effect”; in [9], “Dose-Dependent Effect”. For the same molecule, the outcome (with HeLa [11]; in the test with HeLa [12]; in test [10]) was Active.
Regarding `Cc1cc(-c2scnc2C)ccc1[C@H](C)NC(=O)[C@@H]1C[C@@H](O)CN1C(=O)[C@@H](NC(=O)C1(C#N)CC1)C(C)(C)C`, the Activity in test [1] turned out to be 155%; in [2], 90%; in test [3], 221%; in [4], 110%.
`Cc1ncsc1-c1ccc(CNC(=O)[C@@H]2C[C@H](O)CN2C(=O)[C@@H](NC(=O)C2(C#N)CC2)C(C)(C)C)cc1`: the result (in the test on HeLa [13]; with HeLa [14]; in test [15]; in test [16]) was inactive.
Take `Cc1ncsc1-c1ccc([C@H](C)NC(=O)[C@@H]2C[C@@H](O)CN2C(=O)[C@@H](NC(=O)C2(C#N)CC2)C(C)(C)C)cc1F`: the Activity in test [1] worked out at 105%; in test [2] it was 48%; in test [3] it was 123%; in test [4], 52%.
`Cc1cc(-c2scnc2C)c(F)cc1CNC(=O)[C@@H]1C[C@@H](O)CN1C(=O)[C@@H](NC(=O)C1(F)CC1)C(C)(C)C`: in [17], the Kd was 72 nM. Also, the Activity in test [1] was 124%; in test [2], 110%; in [3] it was 153%; in [4], 76%. In addition, the K in test [5] is 1 10^6/M/s.
On to `CC(=O)N[C@H](C(=O)N1C[C@H](O)[C@H](F)[C@H]1C(=O)NCc1ccc(-c2scnc2C)cc1)C(C)(C)C`, for which the Kd in test [18] was determined as 244 nM.
Consider `Cc1cc(-c2scnc2C)ccc1[C@H](C)NC(=O)[C@@H]1C[C@@H](O)CN1C(=O)[C@@H](NC(=O)C1(F)CC1)C(C)(C)C`, for which the Activity in [1] is 182%; in test [2], 224%; in test [3], 263%; in test [4] it was 208%; in test [8], “Dose-Dependent Effect”; in test [9], “Dose-Dependent Effect”. The K in [5] was 1 10^6/M/s. Besides, the result (with HeLa [11]; with HeLa [12]; in test [10]) was Active. Also, the IC50 in test [6] turned out to be 164 nM; in [19], 122 nM.
In the case of `Cc1ncsc1-c1ccc(CNC(=O)[C@@H]2C[C@@H](O)CN2C(=O)[C@@H](NC(=O)C2(F)CC2)C(C)(C)C)cc1F`, the Activity in test [1] worked out at 107%; in test [2], 89%; in test [3], 108%; in test [4] it was 75%. In addition, the K in [5] is 1 10^6/M/s.
`CC(=O)N[C@H](C(=O)N1C[C@H](O)C[C@H]1C(=O)NCc1ccc(-c2scnc2C)c(C(F)(F)F)c1)C(C)(C)C`: in [20], the Kd was 2990 nM.
With `CC(=O)N[C@H](C(=O)N1C[C@H](O)C[C@H]1C(=O)NCc1ccc(-c2scnc2C)cc1C(F)(F)F)C(C)(C)C`, the Kd in test [20] stood at 268 nM.
